Reference: US10294202B2, “Pyrrolidinones as herbicides” (FMC Corporation, priority 2013, dated 2019)
Values joined by “and” are separate entries in the source; they are usually repeats but may differ in a detail not shown here. Equal values may be shown once.

Assays:
[1] = tested on: ducksalad (HETLI); assay: Test G paddy mixture test (Colby); format: in vivo, Heteranthera limosa; conditions: applied alone, 14 d; for HETLI Obsd. plant response rating (scale 0 to 100): flooded
How it was run: (§1)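 Weeds sown in Tama soil tubs; barnyardgrass and transplanted japonica rice grown in plug flats. Treated at 2.0–2.5 leaf stage; visual rating 0–100 versus controls after 14 d in greenhouse. Expected mixture effect calculated with Colby's equation; rates in g a.i. per area.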

[2] = tested on: barnyardgrass (ECHCG); assay: Test G paddy mixture test (Colby); format: in vivo, Echinochloa crus-galli; conditions: applied alone, 14 d; for ECHCG Obsd. plant response rating (scale 0 to 100): flooded
Procedure: (§2) Seeds of small-flower umbrella […], Cyperus difformis) and […], Heteranthera limosa) were sown on the soil surface in two separate quadrants of 11-cm (4-inch) tubs filled with steam pasteurized Tama soil. Simultaneously, plantings of […], Echinochloa crus-galli) and transplanted japonica rice (ORYSA, Oryza sativa) were established in separate “plug” flats. […] Herbicide application timing was targeted at the 2.0 to 2.5 leaf stage and the plants were treated with test chemicals formulated in a non-phytotoxic solvent. Treated plants and controls were maintained in a greenhouse for 14 d, after which time all species were compared to controls and visually evaluated. Plant response ratings are summarized in Tables G1 through G12, and are based on a scale of 0 to 100 where 0 is no effect and 100 is complete control. A dash (-) response means no test result. Colby's Equation was used to determine the herbicidal effects expected from the mixtures. Colby's Equation (Colby, S. R. “Calculating Synergistic and Antagonistic Responses of Herbicide Combinations,” Weeds, 15(1), pp 20-22 (1967)) calculates the expected additive effect of herbicidal mixtures and for two active ingredients is of the form: Pa+b=Pa+Pb-(PaPb/100) where • Pa+b is the percentage effect of the mixture expected from additive contribution of the individual components: • Pa is the observed percentage effect of the first active ingredient at the same use rate as in the mixture, and • Pb is the observed percentage effect of the second active ingredient at the same use rate as in the mixture. In the following Tables, rates are shown in grams of active ingredient per […]); “Obsd.” is the observed effect. “Exp.” is the expected effect calculated from Colby's Equation.

[3] = tested on: transplanted japonica rice (ORYSA); assay: Test G paddy mixture test (Colby); format: in vivo, Oryza sativa; conditions: applied alone, 100 g a.i./ha, 14 d; for ORYSA Obsd. plant response rating (scale 0 to 100): flooded
Procedure: as §2

[4] = tested on: small-flower umbrella sedge (CYPDI); assay: Test G paddy mixture test (Colby); format: in vivo, Cyperus difformis; conditions: applied alone, 14 d; for CYPDI Obsd. plant response rating (scale 0 to 100): flooded
How it was run: as §1

[5] = tested on: soybean (GLXMA); assay: Test H preemergence mixture test (Colby); format: in vivo, Glycine max; conditions: Mesotrione alone 16 g a.i./ha, 21 d after treatment, scale 0 to 100
Source text: (§3) Colby's Equation was used to determine the herbicidal effects expected from the mixtures. Colby's Equation (Colby, S. R. “Calculating Synergistic and Antagonistic Responses of Herbicide Combinations,” Weeds, 15(1), pp 20-22 (1967)) calculates the expected additive effect of herbicidal mixtures and for two active ingredients is of the form: Pa+b=Pa+Pb−(PaPb/100)
(§4) where • Pa+b is the percentage effect of the mixture expected from additive contribution of the individual components: • Pa is the observed percentage effect of the first active ingredient at the same use rate as in the mixture, and • Pb is the observed percentage effect of the second active ingredient at the same use rate as in the mixture. In the following Tables, rates are shown in grams of active ingredient per hectare (g a.i./ha); “Obsd.” is the observed effect. “Exp.” is the expected effect calculated from Colby's Equation.
(§5) This test evaluated the effect of mixtures of compound 80 with several commercial herbicides on four plant species. Seeds of plant species selected from corn (ZEAMD, Zea mays), soybean (GLXMA, Glycine max), waterhemp (common waterhemp, AMATA, Amaranthus rudis), and giant foxtail (SETFA, Setaria faberii) were planted into a silt loam soil and treated preemergence with test chemicals formulated in a non-phytotoxic solvent mixture which included a surfactant and applied using a volume of 281 L/ha. Each treatment was replicated three times. Treated plants and controls were maintained in a greenhouse using supplemental lighting to maintain a photoperiod of about 16 h; daytime and nighttime temperatures were about 24-30° C. and 19-21° C., respectively. Nutrients were applied using a balanced fertilizer applied through the watering system. At 21 d after treatment, all species were compared to controls and visually evaluated. Plant response ratings were calculated as the means of the three replicates, are summarized in Tables H1 through H5, and are based on a scale of 0 to 100 where 0 is no effect and 100 is complete control. A dash (-) response means no test result. The Expected (Exp.) results were calculated using Colby's Equation as described for Test G above.

[6] = tested on: corn (ZEAMD); assay: Test H preemergence mixture test (Colby); format: in vivo, Zea mays; conditions: Mesotrione alone 16 g a.i./ha, 21 d after treatment, scale 0 to 100
Source text: as §3, §4, §5

[7] = tested on: waterhemp (AMATA); assay: Test H preemergence mixture test (Colby); format: in vivo, Amaranthus rudis; conditions: Mesotrione alone 16 g a.i./ha, 21 d after treatment, scale 0 to 100
Source text: as §3, §4, §5

[8] = tested on: giant foxtail (SETFA); assay: Test H preemergence mixture test (Colby); format: in vivo, Setaria faberii; conditions: Mesotrione alone 16 g a.i./ha, 21 d after treatment, scale 0 to 100
Source text: as §3, §4, §5

CCN(C(=O)n1nnn(-c2ccccc2Cl)c1=O)C1CCCCC1 [Fentrazamide]
HETLI Obsd. plant response rating (scale 0 to 100) ([1]; 100 g a.i./ha): 85 and 100
HETLI Obsd. plant response rating (scale 0 to 100) ([1]; 200 g a.i./ha): 100
ECHCG Obsd. plant response rating (scale 0 to 100) ([2]; 100 g a.i./ha): 50 and 85
ECHCG Obsd. plant response rating (scale 0 to 100) ([2]; 200 g a.i./ha): 95 and 85
ORYSA Obsd. plant response rating (scale 0 to 100) [3]: 0
CYPDI Obsd. plant response rating (scale 0 to 100) ([4]; 100 g a.i./ha): 90 and 100
CYPDI Obsd. plant response rating (scale 0 to 100) ([4]; 200 g a.i./ha): 100

CS(=O)(=O)c1ccc(C(=O)C2C(=O)CCCC2=O)c(Cl)c1COCC1CCCO1 (stereo not shown) [Tefuryltrione]
HETLI Obsd. ([1]; 100 g a.i./ha, scale 0-100): 90
HETLI Obsd. plant response rating (scale 0 to 100) ([1]; 100 g a.i./ha): 100
ECHCG Obsd. ([2]; 100 g a.i./ha, scale 0-100): 0
ECHCG Obsd. plant response rating (scale 0 to 100) ([2]; 100 g a.i./ha): 40
ORYSA Obsd. ([3]; scale 0-100): 0
ORYSA Obsd. plant response rating (scale 0 to 100) [3]: 0
CYPDI Obsd. ([4]; 100 g a.i./ha, scale 0-100): 90
CYPDI Obsd. plant response rating (scale 0 to 100) ([4]; 100 g a.i./ha): 100

CS(=O)(=O)c1ccc(C(=O)C2C(=O)CCCC2=O)c([N+](=O)[O-])c1 [Mesotrione, reference compound]
Plant response rating, Obsd., GLXMA [5]: 25
Plant response rating, Obsd., ZEAMD [6]: 12
Plant response rating, Obsd., AMATA [7]: 96
Plant response rating, Obsd., SETFA [8]: 0
